# Entries after “also recorded” stand apart in the source; their conditions may differ.
# Tests used:
# [1] = target: T1, γ-secretase (Homo sapiens, UniProt P49768); assay: In vitro γ-secretase activity assay, Aβ42 production (ECL); type: biochemical; settings: in words
# T1 construct: endogenous in cells
# Method: FIG. 2. In vitro characterization of coumarin-dimer allosteric GSIs against various γ-secretase cleavage products. […] The IC50 values were calculated from the dose response curves using a non-linear regression analysis in Prism software. […] The three β-amyloid-detection in vitro assays were modified from our previously reported assay (21) using a biotinylated substrate that eliminated the requirement of anti-β-amyloid biotinylated antibody. Ruthenylated antibodies that detected the -40, -42, or -38 cleavage site were incorporated to detect proteolysis indicative of γ-secretase activity. In vitro Notch assay utilized a recombinant transmembrane portion of the Notch peptide and anti-Notch1 SM320 antibody in conjunction with ruthenylated anti-rabbit secondary antibodies. Electrochemiluminescence was quantified on an Analyzer (BioVeris).
# Briefly, recombinant peptide substrate was incubated with γ-secretase (40 μg/ml) in the presence or absence of test compound. […] The reaction was incubated for 2.5 hr at 37° C. and stopped by adding RIPA buffer (150 mM NaCl, 1.0% NP-40, 0.5% sodium deoxycholate, 0.1% SDS, 50 mM Tris HCl, pH 8.0). […] The amount of product was determined using synthetic peptide or recombinant standards.
# (§1) Cell membranes and solubilized γ-secretase were prepared as described previously (36). The in vitro and cell γ-secretase assays detecting either Aβ38, Aβ40, or Aβ42 cleavage were performed similar as previously described (21, 36). Cleaved product was detected using ruthenylated antibodies that recognize specific APP cleavage sites (Aβ31-38*, G2-10*, or G2-11* antibody for Aβ38, Aβ40, or Aβ42 respectively). The Km and Vmax in the presence and absence of γ-secretase inhibitors were analyzed by non-linear curve fit using the software SigmaPlot 8.0 with the Michaelis-Menten equation (v=Vm [S]/(Km+[S]; v: initial rate; Vm: maximum velocity; Km: the Michaelis-Menten constant, S: substrate).
# [2] = tested on: HEK-293 cells transfected with ΔE Notch construct; assay: Cell-based Notch cleavage assay (NICD production); settings: HEK-293, ΔE Notch, 24 hrs; Western blot; CS-1 up to 30 μM
# Method: FIG. 3. Cellular evaluation of the coumarin-dimer CS-1 and its selective inhibition of Aβ42. Compounds were incubated with the APPsw-N2A mouse neuroblastoma cells for 24 hours and media were analyzed by biotinylated 4G8 and ruthenylated antibodies specific for each respective cleavage product. […] (d) Immunoprecipitation mass spectrometry analysis of CS-1 effect on secreted β-amyloid species. Aβ peptides were immunoprecipitated using 4G8 antibody and isolated with Protein G+/A agarose beads. Samples were analyzed by MALDI-MS. Samples shown are representative and each data point was performed in triplicate. (e) Cell-based Notch cleavage assay. HEK-293 cells were transfected with ΔE Notch construct and then Compound E and CS-1 were evaluated for their ability to inhibit γ-secretase-mediated Notch intracellular domain production. […] The generated AICD and APP-CTFs were detected by Western Blotting using APPc antibody. […]
# We next determined the ability of CS-1 to suppress cellular γ-secretase activity for Notch1 cleavage. […]
# ΔE Notch or empty pcDNA3.1(−) construct was transfected into HEK-293 cells in a 6-well format using Lipofectamine reagent, following manufacturer's instructions. […] Samples were then centrifuged at 13,000 rpm's at 4° C. and the supernatent was collected and analyzed by Western analysis using either anti-Myc antibody at a 1:1000 dilution or anti-NICD-1 SM320 at a 1:500 dilution.
# [3] = tested on: N2a mouse neuroblastoma cells that stably express Swedish-mutated APP; assay: Cell-based assay of secreted Aβ42, Aβ40, Aβ38 in APPsw-N2A cells; settings: 24 hrs, in words, CS-1 up to 30 μM
# Method: FIG. 3. Cellular evaluation of the coumarin-dimer CS-1 and its selective inhibition of Aβ42. Compounds were incubated with the APPsw-N2A mouse neuroblastoma cells for 24 hours and media were analyzed by biotinylated 4G8 and ruthenylated antibodies specific for each respective cleavage product. […] (d) Immunoprecipitation mass spectrometry analysis of CS-1 effect on secreted β-amyloid species. Aβ peptides were immunoprecipitated using 4G8 antibody and isolated with Protein G+/A agarose beads. Samples were analyzed by MALDI-MS. Samples shown are representative and each data point was performed in triplicate. (e) Cell-based Notch cleavage assay. HEK-293 cells were transfected with ΔE Notch construct and then Compound E and CS-1 were evaluated for their ability to inhibit γ-secretase-mediated Notch intracellular domain production. […] Western blot is representative and was performed in triplicate. (f) Effect of CS-1 on AICD production. N2A APPsw cell membrane was prepared and incubated with the indicated concentrations of CS-1 at 37° C. for 2 hours. The generated AICD and APP-CTFs were detected by Western Blotting using APPc antibody. Western blot is representative and was performed in triplicate.
# We next set out to determine if the selective inhibition of Aβ42 was maintained in a cell-based system for APP processing. First, we compared our lead compound CS-1 (FIG. 3a) to Compound E (FIG. 3b) and the GSM compound indomethacin (FIG. 3c). N2a mouse neuroblastoma cells that stably express Swedish-mutated APP substrate were treated with the indicated compounds for 24 hrs at 37° C. Following 24 hr incubation period, the medium was collected from the cells and assayed for secreted Aβ42, Aβ40, and Aβ38. […] The result for indomethacin mirrored those findings by Kukar et al. whereby a different cell-based system was utilized (17), further validating our assay system for analysis of these Aβ species. […] This may reflect subtle variations between the cellular and in vitro conformations of γ-secretase. Nevertheless, the cell-based studies confirmed that CS-1 maintains a preference for inhibition of the γ-secretase mediated production of Aβ42 over Aβ40 or Aβ38, which is distinct to previously reported GSMs (17) and inhibitors (14-15, 18).
# as §1
compound,measurement,setting,value
C[C@H](NC(=O)Cc1cc(F)cc(F)c1)C(=O)N[C@H]1N=C(c2ccccc2)c2ccccc2N(C)C1=O [Compound E],inhibitory potency and selectivity against γ-secretase cleavage activities in vitro,[1],did not exhibit any significant selectivity
same,effect on Notch intracellular domain (NICD) production,[2],able to prevent production of NICD; also recorded: effectively blocked all production
same,effect on secreted Aβ38 production,[3],no inhibitory selectivity; also recorded: inhibited the production of all three β-amyloid species with equal potency
same,effect on secreted Aβ40 production,[3],no inhibitory selectivity; also recorded: inhibited the production of all three β-amyloid species with equal potency
same,effect on secreted Aβ42 production,[3],no inhibitory selectivity; also recorded: inhibited the production of all three β-amyloid species with equal potency

# Reference: patent US20150133493A1, “COUMARIN-BASED COMPOUNDS FOR THE TREATMENT OF ALZHEIMER'S DISEASE AND CANCER” (Sloan-Kettering Institute for Cancer Research, priority 2008, published 2015)
